Entries after “also recorded” stand apart in the source; their conditions may differ.
Columns and labels:
[1] = tested on: RT112 bladder carcinoma cells (FGFR3-dependent); assay: Colony formation assay in RT112 cells; format: cell-based, human
Text: Media (and drug) were replaced weekly.

HER-2 dependent models = conditions: cited from earlier work
[2] = tested on: PC9 cells (EGFR-dependent NSCLC); assay: Colony formation assay in PC9 cells; format: cell-based; conditions: 4 weeks, compared to THZ1 (FIG. 55B)
[3] = tested on: H3K27Ac enhancer signal in PC9 cells; assay: H3K27Ac ChIP-Seq in PC9 cells; format: cell-based, human; conditions: seven days of treatment, vs DMSO
Description: RT112 and PC9 cells treated for seven days with vehicle, 1 μM BGJ398 and erlotinib (respectively), 100 nM THZ1, or BGJ398/erlotinib in combination with THZ1. H3K27Ac ChIP-Seq was performed using Abcam antibody (cat # AB4729, lot # GR183922-1) as previously described,^8 with minor modifications (cells were crosslinked for 20 min, Dynal magnetic beads (Sigma) were bound with 10 μg of the indicated antibody).
All ChIP-Seq data sets were aligned using bowtie 1.0.1 to build NCBI36/hg19 of the human genome with -p 4—best -k 2 -m 2—sam -1 40. Wiggle files for gene tracks were created using Macs 1.4.2 with options -w -S -space=50 to count reads in 50 bp bins.
Regions enriched in H3K27Ac were identified using SICER^51 with corresponding input DNA control, and parameters -t 1 (max 1 read per position), -w 200 (window size 200), -i 150 (fragment size), -g 200 (gap size 200; 1 window), -t 0.74 (interrogable genome fraction), -e 200 (e-value), -p 1e-9 (significance p value cutoff). […]
Density of H3K27Ac ChIP-Seq signal (FIG. 51F) was calculated using bamToGFF (github.com/BradnerLab/pipeline). Islands of H3K27Ac identified in RT112 BGJ398-treated cells or PC9 erlotinib-treated cells were treated as one bin (-m 1), reads were extended to be 200 bp (default) and the reads-per-million (-r) normalized density (-d) of reads was calculated therein.

[4] = tested on: signaling pathways in PC9 cells; assay: Western blot / immunoblot of signaling pathways in PC9 cells; format: cell-based; conditions: 24 hours, erlotinib 1 μM, THZ1 100 nM, alone or combined
Description: Cells were lysed in RIPA buffer (Roche) containing protease inhibitors (Roche) and Phosphatase Inhibitor Cocktails I and II (CalBioChem). Protein concentrations were determined using a Bradford assay (Bio-Rad). Proteins were separated by SDS gel electrophoresis using NuPAGE 4-12% Bis-Tris gels (Life Technologies) in MOPS buffer. Resolved protein was transferred to nitrocellulose membranes, blocked in 10% milk and probed with primary antibodies recognizing EGFR (2232S), p-EGFR (2234S), FGFR3 (4574S), p-FGFR (3471S), HER2/ERBB2 (2165), p-ERBB2 (2243S), STAT1 (9172), p-STAT1 (9167), STAT3 (4904S), p-STAT3 (9145S), AKT (9272S), p-AKT (4060P), ERK (4695S), p-ERK (4370S), FRA1 (5281S), CDK12 (11973) (all from Cell Signaling Technology), CDK7 (sc-723, Santa Cruz), actin (A5441, Sigma-Aldrich) and vinculin (V9131, Sigma-Aldrich) in 5% milk or 3% bovine serum albumin as recommended by the manufacturer. After incubation with the appropriate secondary antibody (Pierce anti-mouse IgG/IgM (31444, Thermo Scientific) and anti-rabbit IgG (31460, Thermo Scientific)), blots were imaged on film.
Western blots were used to characterize the signaling pathways in selected cell lines. The assays were performed at 24 hours under the following conditions: untreated, treated with 1 μM erlotinib, treated with 100 nM THZ1, or treated with a combination of erlotinib and THZ1, in PC9 and RT112 cells. These doses were also used in the colony formation assays and the RNAseq and ChIPseq experiments. […] However, it could be blocking the activation of downstream STAT3 targets. […] FGFR is known to be a bypass mechanism in PC9, but this was not seen with THZ1 treatment or with the combination treatment. […] This is unexpected, given that THZ1 should block CDK7-mediated RNAPII phosphorylation. This may be due to the dose or the time point assayed.

[5] = tested on: gene expression in PC9 cells; assay: RNA-Seq gene expression in PC9 cells
Description: RNA was isolated from untreated RT112 cells and RT112 cells treated with 1 μM BGJ398, 100 nM THZ1, or combination treatment with THZ1 plus BGJ398, and similarly, untreated PC9 cells and PC9 cells treated with 1 μM erlotinib, 100 nM THZ1, or THZ1 plus erlotinib. Both cell lines were harvested at two time-points: following one day or seven days of treatment. Cell number was determined and total RNA was isolated using the RNeasy micro kit (Qiagen). Ambion® ERCC RNA Spike-In Mix (Life technology) was added to total RNA. cDNA libraries were prepared using the NEBNext® Ultra™ RNA Library Prep Kit for Illumina (New England Biolabs) according to the manufacturer's instructions. Library integrity was assessed on an Agilent 2100 Bioanalyzer (Agilent). Sequencing was performed on the Hiseq 2000 platform (Illumina) to a minimum depth of 30 million reads per sample.
QC-passed reads were aligned to the human reference genome (hg19) using PRADA.^46 Transcript per million (TPM) values were determined using RSEM.^47 TPM values were normalized with the voom transformation.^48 Expression changes for each gene in treated cells compared to untreated controls was determined using the limma package^49 as log 2-transformed fold change and a multiple-testing adjusted p-value. Heatmap visualization was performed using R. Log 2-transformed fold changes were not scaled and were colored on a blue-red scale.
Differentially expressed genes (defined as log 2-fold change value greater than 1.5 or less than −1.5, and p-value less than 0.01) were input into Ingenuity Pathway Analysis (www.ingenuity.com), to identify a) enriched pathways, 2) upstream regulators, andd 3) downstream effectors. […] We considered an activation z-score of greater than [2] to be activated, and less than [−2] to be inhibited. Gene ontology term (GO-term) enrichment analysis was performed using the Database for Annotation, Visualization and Integrated Discovery (DAVID) v6.7 (david.abcc.ncifcrf.gov/).

PC9 cells = assay: Apoptosis/cell death analysis (Annexin V/PI flow cytometry) in PC9 cells; format: cell-based; conditions: 48 hours; erlotinib 1 μM; compared to PC9 cells with control RNA guide
Description: 100,000 cells were seeded in 6-well plates, allowed to adhere overnight, and then incubated with media containing vehicle or drug as indicated for 24 or 48 hours. Cell death was quantified using the Alexa Fluor 488 Annexin V/Dead Cell Apoptosis kit for flow cytometry (Invitrogen), according to the manufacturer's protocol. All conditions were assayed in triplicate. Data were acquired using a BD LSRFortessa X-20 (BD Biosciences), and analyzed in FlowJo.

IL-6 = IL-6 in PC9 cell culture supernatants (Luminex cytokine assay, ELISA); format: cell-based; conditions: PC9 cells; erlotinib 1 μM, THZ1 100 nM; 24 and 72 hours
Description: A Luminex Multiplex Custom Cytokine assay was used to assay cytokines in RT112 and PC9 cell culture supernatants treated with vehicle, 1 μM BGJ398 or erlotinib respectively, 100 nM THZ1, or THZ1 in combination with BGJ398 or erlotinib, at 24 and 72 hours. Cytokines assayed for were: CCL2/MCP-1, CCL5/RANTES, CXLC5, IL-1 alpha and beta, IL-2, IL-4, IL-5, IL-6, IL-8, IL-10, IL-17a, GM-CSF, TNF-alpha, VEGF, INF-gamma. IL-6 was also assayed in cell culture supernatants using the Quantikine IL-6 ELISA kit (D6050, R&D Systems) as per the manufacturer's protocol.

SMILES: Cc1sc2c(c1C)C(c1ccc(Cl)cc1)=N[C@@H](CC(=O)OC(C)(C)C)c1nnc(C)n1-2 [JQ1]
- enhancement of sensitivity to BGJ398 (colony formation) ([1]; 4 weeks, compared to THZ1 (FIG. 55D)): did enhance sensitivity to BGJ398 in RT112, although less so than THZ1
- colony formation, transcription inhibitor alone or in combination with BGJ398 ([1]; one week, 24-well plate (FIG. 35)): modest results, even in combination
- sensitivity to lapatinib (HER-2 dependent models): enhance sensitivity to lapatinib
- enhancement of sensitivity to erlotinib (colony formation) [2]: did not enhance sensitivity to erlotinib

SMILES: C#Cc1cccc(Nc2ncnc3cc(OCCOC)c(OCCOC)cc23)c1 [erlotinib]
- H3K27Ac ChIP-Seq signal at enhancers [3]: significant increase in H3K27Ac signal
- FGFR activation [4]: is activated; also recorded: activation of FGFR was also observed
- p-STAT3 (STAT3 phosphorylation/activation) [4]: increases
- gene expression (transcriptional programs) by RNAseq ([5]; erlotinib 1 μM, THZ1 100 nM, one or seven days): transcriptionally distinct form the parental population; also recorded: up-regulated the expression of genes involved in pro-survival programs
- gene expression of the top 200 up-regulated genes with erlotinib treatment ([5]; log2-normalized FPKM, two-tailed t-test): significant increase in gene expression
- sensitivity to erlotinib (cell death) of CDK7 and CDK12-deficient PC9 cells (PC9 cells): enhanced sensitivity to erlotinib
- IL-6 levels in cell culture supernatants (IL-6): significantly increased

Source: patent US10702527B2, “Combination therapy of transcription inhibitors and kinase inhibitors” (Dana-Farber Cancer Institute, Inc., priority 2015, dated 2020)
